Assays:
ATF4 = ATF4 immunoblot in cells; type: cell-based, human; settings: 20 μM; 0, 2, 5, 7.5 h, FIG. 13
Procedure: (§1) For immunoblots, HeLa cells (80,000 cells/ml) were plated in 12-well plates 24 hours before each experiment. Immediately after the indicated treatments, cells were lysed in 75 μl Laemmli Buffer, boiled at 95° C. for 5 minutes and sonicated. Proteins were separated and analysed as described (Tsaytler et al., Science, 332, 91-94, 2011) with the following antibodies: phospho-elf2α [pS52] and PPP1R15A/GADD34 (10449-1-AP; ProteinTech Group, 1/1000 dilution) and ATF4 (Sc-200 Santa Cruz).
Translation can be inhibited at many levels. To ensure that the R15A and B inhibitors are on-target, we monitor the levels of ATF4 in cells treated with compounds. A R15A/B inhibitor persistently induce eIF2α phosphorylation and eIF2α phosphorylation results in ATF4 translation. We show here that an A/B inhibitor indeed induces ATF4, confirming target engagement in cells.

eIF2α phosphorylation [1] = test: Assay 5: eIF2α phosphorylation during stress-recovery (DTT wash out); type: cell-based; settings: 30 minute 1 mM DTT and wash out, before R15A is expressed
Procedure: (§2) HeLa cells were cultured in Dulbecco's Modified Eagle's Media (DMEM) supplemented with penicillin, streptomycin, containing 5% and 10% fetal bovine serum (FBS), respectively. MEF cells were cultured in DMEM supplemented with penicillin, streptomycin, glutamine, 55 μM β-mercaptoethanol, 1× non-essential amino acids (Sigma-Adrich) and 10% FBS. Where indicated, cells were treated with 2.5 μg/ml tunicamycin, 1 mM DTT (Sigma-Adrich) and or the indicated compounds at the indicated concentrations.
as §1
The inventors reasoned that a PPP1R15B inhibitor should prolong eIF2α phosphorylation following stress. […] The inventors took advantage of the fast kinetic and reversibility of stress induction by DTT (Bertolotti et al., Nat. Cell. Biol., 2, 326-332, 2000; Jousse et al., 2003) and monitored eIF2α phosphorylation in cells following a 30 minute treatment with 1 mM DTT and a wash out. […]

eIF2α phosphorylation [2] = test: Assay 2: eIF2α phosphorylation in cells in the absence of stress; type: cell-based; settings: human cells
Procedure: as §2, §1
Human cells were treated with a PPP1R15B inhibitor and eIF2α phosphorylation was monitored over time. […] This was manifested between 1 and 7.5 hours after addition of the compound of Example 1. […] Indeed, the inventors noticed that PPP1R15A was induced at the late time points following addition of the compound of Example 1 (see Assay 3). […] Furthermore, this establishes that the compound of Example 1 spares PPP1R15A. […]

[3] = Tissue distribution in mice after oral gavage; type: in vivo; settings: plasma, brain, spinal cord, pancreas, liver
HD-N171-82Q mice = test: Huntington's disease mouse model, motor performance (rotarod); type: in vivo; settings: 2 mg/kg oral daily, 4 weeks
Procedure: To assess the efficacy of a compound of Example 1 in ameliorating a disease phenotype, 28-day old transgenic mice or littermate control were orally administered daily with a compound of Example 1 (2 mg/kg) or vehicle for a duration of 4 weeks. Disease progression was evaluated by weighting the mice during the treatment and by assessing their motor performances after 4 weeks of treatment.
Eight weeks old HD-N171-82Q mice and their wild-type littermates were first habituated for 1 min on a static rotor and 1 min at constant speed (4 rpm). Habituation was repeated. The test session consisted of four trials with 15 min intervals in between. For each trial 5 mice were placed on an accelerating rotor (4 to 40 rpm) and the latency to fall was recorded, with a maximum limit for individual animal set at 300 s.
Increasing folding by inhibition of PPP1R15B has the potential to benefit a very broad range of human pathologies. To test this, the inventors looked at Huntington's disease (HD), a proteostasis disease caused by accumulation of a misfolded protein, mutant Huntingtin. […] As HD has no cure to date, the inventors tested whether HD could be prevented by PPP1R15B inhibition.

[4] = tested on: dorsal root ganglia culture (DRG) from PMP22 mutant mice; test: Myelination in DRG explants from neuropathic mice; type: cell-based; settings: 5 nM, 14 days
Procedure: Dorsal root ganglia (DRG) dissected from wild-type or Pmp22Tr-J (PMP22mutant) (Henry et al., Neuropathol. Exp. Neurol., 42, 688-706, 1983) embryo at 13.5 or […] (E13.5) were cultured on collagen coated coverslips in neurobasal media supplemented with 4 g/l glucose, 2 mM L-glutamine, 2% B27 supplement and 50 ng/ml neuronal growth factor (NGF) for 7 days. To differentiate Schwann cells and induce myelination, the cultured DRGs were then maintained in C-media (MEM media supplemented with 4 g/I glucose, 2 mM L-glutamine, 10% FCS, 50 ng/ml NGF). The C-media was replaced every other day with freshly added 50 μg/ml ascorbic acid ±5 nM of compound of Example I and cultured for 14 days for myelination by the Schwann cells. The cultured DRGs were then fixed in 4% paraformaldehyde and immunostained with MBP (Rat Myelin basic protein, 1/250 dilution, ab73498).
CMT is a group of myelin neuropathies caused by mutations in a number of genes. Mutations in the peripheral myelin protein PMP22 are the most common causes of CMT. A mutation in PMP22 (Trembler-J) causes the misfolding of PMP22 and a disease in mice that resembles CMT in human due to defects in myelin in the peripheral nervous system. Explants from PM P22 mutant mice recapitulates the severe hypomyelination observed in the human diseases. […] The compound of Example 1 will also be useful in the treatment of other myelin disorders.

SMILES	expression of ATF4 (immunoblot) (ATF4)	eIF2α phosphorylation following stress (eIF2α phosphorylation [1])	eIF2α phosphorylation (eIF2α phosphorylation [2]; 10 hours after addition)	eIF2α phosphorylation (eIF2α phosphorylation [2]; between 1 and 7.5 hours after addition)	tissue distribution [3]	motor performances (HD-N171-82Q mice)	length of myelin internodes [4]
[H]/N=C(\N)NN=Cc1cc(Cl)cc(Cl)c1Cl [Compound 10, (E)-2-(2,3,5-trichlorobenzylidene)hydrazine-1-carboximidamide]	induces expression of ATF4	–	–	–	–	–	–
[H]/N=C(\N)NN=Cc1cccc(Cl)c1Cl [Compound 16, (E)-2-(2,3-dichlorobenzylidene)hydrazine-1-carboximidamide]	–	prolongs eIF2⊐ phosphorylation following stress	returned to basal levels	induced eIF2α phosphorylation	extensive tissue distribution	prevented the motor performances impairment	increased the length of myelin internodes in mutant DRG

From patent US11154519B2, “Inhibitors and their uses” (MEDICAL RESEARCH COUNCIL, priority 2015, dated 2021)
